Source: PubChem BioAssay AID248 (DTP/NCI, 2004)
Where “and” joins values, the source holds several entries; their conditions need not be identical. Identical values can stand only once. Toxic doses and inconclusive results are not listed.

Tested on: L1210 leukemia ip in BDF1 mice, survival T/C
Assay: NCI In Vivo Anticancer Drug Screen. Data for tumor model L1210 Leukemia (intraperitoneal) in B6D2F1 (BDF1) mice
Conditions: endpoint: mean survival time, higher = longer survival
Method in brief: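 Tumor was transplanted into mice, which were then dosed with test compound or vehicle alone. Survival was recorded for each group, and the treated figure was expressed relative to the control figure.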

[1] = dose: 100.0 mg/kg/injection, schedule: Q01DX009 (ip), vehicle: Klucel (hydroxypropylcellulose) (HPC)
[2] = dose: 200.0 mg/kg/injection, schedule: Q01DX009 (ip), vehicle: Klucel (hydroxypropylcellulose) (HPC)
[3] = dose: 400.0 mg/kg/injection, schedule: Q01DX009 (ip), vehicle: Klucel (hydroxypropylcellulose) (HPC)
[4] = dose: 100.0 mg/kg/injection, schedule: Q04DX002 (ip), vehicle: Klucel (hydroxypropylcellulose) (HPC)
[5] = dose: 200.0 mg/kg/injection, schedule: Q04DX002 (ip), vehicle: Klucel (hydroxypropylcellulose) (HPC)
[6] = dose: 400.0 mg/kg/injection, schedule: Q04DX002 (ip), vehicle: Klucel (hydroxypropylcellulose) (HPC)

Structure (SMILES): CCN(CC)CCCC(C)Nc1cccc2c1C(=O)c1cccc(NC(C)CCCN(CC)CC)c1C2=O (stereo unspecified)
- T/C (dose: 12.5 mg/kg/injection, schedule: Q01DX009 (ip), vehicle: saline): 107 % of control
- T/C (dose: 25.0 mg/kg/injection, schedule: Q01DX009 (ip), vehicle: saline): 96 % of control and 118 % of control
- T/C (dose: 25.0 mg/kg/injection, schedule: Q04DX002 (ip), vehicle: saline): 98 % of control and 95 % of control
- T/C (dose: 50.0 mg/kg/injection, schedule: Q04DX002 (ip), vehicle: saline): 92 % of control and 98 % of control
- T/C (dose: 100.0 mg/kg/injection, schedule: Q04DX002 (ip), vehicle: saline): 102 % of control and 92 % of control

Structure (SMILES): ClCCOCOCCCl
- T/C (dose: 20.0 mg/kg/injection, schedule: Q04DX003 (ip), vehicle: Klucel (hydroxypropylcellulose) (HPC)): 104 % of control
- T/C (dose: 40.0 mg/kg/injection, schedule: Q04DX003 (ip), vehicle: Klucel (hydroxypropylcellulose) (HPC)): 104 % of control
- T/C (dose: 80.0 mg/kg/injection, schedule: Q04DX003 (ip), vehicle: Klucel (hydroxypropylcellulose) (HPC)): 101 % of control

Structure (SMILES): CN(C)P(=O)(N(C)C)N1CC1
- T/C (dose: 0.75 mg/kg/injection, schedule: Q01DX009 (ip), vehicle: saline): 98 % of control
- T/C (dose: 1.5 mg/kg/injection, schedule: Q01DX009 (ip), vehicle: saline): 103 % of control
- T/C (dose: 3.7 mg/kg/injection, schedule: Q01DX009 (ip), vehicle: saline): 101 % of control
- T/C (dose: 3.75 mg/kg/injection, schedule: Q01DX009 (ip), vehicle: saline): 98 % of control
- T/C (dose: 7.5 mg/kg/injection, schedule: Q01DX009 (ip), vehicle: saline): 113 % of control and 115 % of control
- T/C (dose: 15.0 mg/kg/injection, schedule: Q01DX009 (ip), vehicle: saline): 120 % of control
- T/C (dose: 30.0 mg/kg/injection, schedule: Q01DX001 (ip), vehicle: saline): 111 % of control
- T/C (dose: 30.0 mg/kg/injection, schedule: Q01DX009 (ip), vehicle: saline): 173 % of control

Structure (SMILES): O=C(O)C1CC=CCCC1 (stereo unspecified)
- T/C [1]: 96 % of control
- T/C (dose: 100.0 mg/kg/injection, schedule: Q04DX003 (ip), vehicle: Klucel (hydroxypropylcellulose) (HPC)): 101 % of control
- T/C [2]: 96 % of control
- T/C (dose: 200.0 mg/kg/injection, schedule: Q04DX003 (ip), vehicle: Klucel (hydroxypropylcellulose) (HPC)): 101 % of control
- T/C [3]: 93 % of control
- T/C (dose: 400.0 mg/kg/injection, schedule: Q04DX003 (ip), vehicle: Klucel (hydroxypropylcellulose) (HPC)): 98 % of control

Structure (SMILES): FC1(F)SC2c3ccccc3CC2C1(F)F (stereo unspecified)
- T/C [1]: 97 % of control
- T/C [2]: 101 % of control
- T/C [3]: 95 % of control

Structure (SMILES): N#Cc1ccc(OCCCCCOc2ccc(C#N)cc2I)c(I)c1
- T/C (dose: 25.0 mg/kg/injection, schedule: Q04DX002 (ip), vehicle: Klucel (hydroxypropylcellulose) (HPC)): 100 % of control
- T/C (dose: 50.0 mg/kg/injection, schedule: Q04DX002 (ip), vehicle: Klucel (hydroxypropylcellulose) (HPC)): 100 % of control
- T/C [4]: 95 % of control and 97 % of control
- T/C [5]: 89 % of control
- T/C [6]: 94 % of control

Structure (SMILES): Cc1ccc(NC(=O)Oc2ccc(Nc3ccccc3)cc2)cc1
- T/C [1]: 103 % of control
- T/C [4]: 98 % of control
- T/C [2]: 95 % of control
- T/C [5]: 95 % of control
- T/C [3]: 98 % of control
- T/C [6]: 91 % of control
